# Laboratory results as given in US20180333418A1, “USE OF PAN FGFR INHIBITORS AND METHOD OF IDENTIFYING PATIENTS WITH CANCER ELIGIBLE FOR TREATMENT WITH A PAN FGFR INHIBITOR” (BAYER PHARMA AKTIENGESELLSCHAFT, priority 2014, published 2018).
# Key:
# [1] = test system: KYSE-140 esophageal tumor model; experiment: KYSE-140 xenograft in vivo efficacy; set-up: species or system nu/nu mice; conditions: KYSE-140 esophageal model; tumor weight reduction
# Description: (§1) For all other tumors as listed in table 2 & 3 the experiments were carried out in an analogous way as described above.
# OMP2 myeloma tumor model = experiment: OMP2 xenograft in vivo efficacy; set-up: species or system nu/nu mice; conditions: tumor weight reduction
# Description: as §1
# [2] = test system: MFE280 endometrial tumor model; experiment: MFE280 xenograft in vivo efficacy; set-up: species or system nu/nu mice; conditions: tumor weight reduction
# Description: as §1
# [3] = test system: FGFR mRNA-positive tumors of cancer patients; experiment: Clinical trial NCT01976741, RECIST CT scan evaluation; format: in vivo; set-up: key to RECIST response after C2 / RECIST response after C5: Stable Disease (SD) according to RECIST; progressive disease (PD); conditions: 800 mg BID; for % tumor change after C2 / RECIST response after C2: C2 = 6 weeks; for % tumor change after C5 / RECIST response after C5: C5 = 15 weeks
# H520 lung tumor model = experiment: H520 xenograft in vivo efficacy; set-up: species or system nu/nu mice; conditions: tumor weight reduction
# Description: as §1
# [4] = test system: HN366 head&neck tumor model; experiment: HN366 xenograft in vivo efficacy; set-up: species or system nu/nu mice; conditions: tumor weight reduction
# Description: as §1
# [5] = test system: OVXF1023 ovarian carcinoma; experiment: OVXF1023 patient-derived xenograft study; format: in vivo, nu/nu mice
# Description: Female, 5-7 weeks old immunocompromised nu/nu mice (18-24 g) from Janvier (France) were used for the patient-derived OVX1023 ovarian carcinoma study.
# The animals were housed in individually ventilated cages ([…] Sealsafe™-IVC-System, […], Hohenpeissenberg, Germany) and were kept under a 14L:10D artificial light cycle. The animals were monitored twice daily. Depending on group size, either type III cages or type II long cages were used. Dust-free bedding consisting of aspen wood chips with approximate dimensions of 5×5×1 mm (ABEDD®—LAB & VET Service GmbH, Vienna, Austria, Product Code: LTE E-001) were used. Additional nesting material was routinely added. […]
# All experiments were approved by the local authorities, and were conducted according to all applicable international, national and local laws and guidelines. […] Animals were routinely monitored twice daily on working days and daily on weekends and public holidays. […]
# Tumor size was measured twice weekly in two dimensions using a caliper, and the volume was expressed in mm^3 using the formula: V=0.5a×b^2 where a and b are the long and short diameters of the tumor, respectively. […] T-C was calculated with T as the time (in days) required for the mean tumor size of the treatment group to reach a predetermined size (e.g. 1000 mm^3), and C was the time (in days) for the mean tumor size of the control group to reach the same size. […]
# H1581 lung tumor model = experiment: H1581 xenograft in vivo efficacy; set-up: species or system nu/nu mice; conditions: tumor weight reduction
# Description: as §1
# HepG2 liver tumor model = experiment: HepG2 xenograft in vivo efficacy; set-up: species or system nu/nu mice; conditions: tumor weight reduction
# Description: as §1
# [6] = test system: MFM223 breast tumor model; experiment: MFM223 xenograft in vivo efficacy; set-up: species or system nu/nu mice; conditions: tumor weight reduction
# Description: as §1
# LU0697 lung tumor model = experiment: LU0697 xenograft in vivo efficacy; set-up: species or system nu/nu mice; conditions: tumor weight reduction
# Description: as §1
# H716 colon tumor model = experiment: H716 xenograft in vivo efficacy; set-up: species or system nu/nu mice; conditions: tumor weight reduction
# Description: as §1
# DMS114 lung tumor model = experiment: DMS114 xenograft in vivo efficacy; set-up: species or system nu/nu mice; conditions: tumor weight reduction
# Description: as §1
# H1703 lung tumor model = experiment: H1703 xenograft in vivo efficacy; set-up: species or system nu/nu mice; conditions: tumor weight reduction
# Description: as §1
# [7] = test system: SNU16 gastric tumor model; experiment: SNU16 xenograft in vivo efficacy; set-up: species or system nu/nu mice; conditions: tumor weight reduction
# Description: as §1
smiles,measurement,setting,value
COCc1c(-c2cc3cc(C)cc(OC)c3s2)c2c(N)ncnn2c1CN1CCNC(=O)C1 [compound of formula (I)],in vivo efficacy,[1],no (All models in which the tumor weight was reduced upon treatment with compounds of formula (I) by at least 50% were considered to be efficacious in vivo.)
same,in vivo efficacy,OMP2 myeloma tumor model,no (All models in which the tumor weight was reduced upon treatment with compounds of formula (I) by at least 50% were considered to be efficacious in vivo.)
same,in vivo efficacy,[2],yes (All models in which the tumor weight was reduced upon treatment with compounds of formula (I) by at least 50% were considered to be efficacious in vivo.)
same,% tumor change after C2,"[3]; Pat 100010010, sqNSCLC",0%
same,RECIST response after C2,"[3]; Pat 100010010, sqNSCLC",SD
same,% tumor change after C5,"[3]; Pat 100010010, sqNSCLC",+8%
same,RECIST response after C5,"[3]; Pat 100010010, sqNSCLC",SD
same,% tumor change after C2,"[3]; Pat 100010018, Mesothelioma",+14%
same,RECIST response after C2,"[3]; Pat 100010018, Mesothelioma",SD
same,% tumor change after C2,"[3]; Pat 100020012, sqNSCLC",−10%
same,RECIST response after C2,"[3]; Pat 100020012, sqNSCLC",SD
same,% tumor change after C2,"[3]; Pat 560020029, sqNSCLC",+4%
same,RECIST response after C2,"[3]; Pat 560020029, sqNSCLC",SD
same,% tumor change after C5,"[3]; Pat 560020029, sqNSCLC",+5%
same,RECIST response after C5,"[3]; Pat 560020029, sqNSCLC",SD
same,% tumor change after C2,"[3]; Pat 560020064, SCLC",−2%
same,RECIST response after C2,"[3]; Pat 560020064, SCLC",SD
same,% tumor change after C2,"[3]; Pat 580010012, sqNSCLC",−10%
same,RECIST response after C2,"[3]; Pat 580010012, sqNSCLC",SD
same,% tumor change after C5,"[3]; Pat 580010012, sqNSCLC",−10%
same,RECIST response after C5,"[3]; Pat 580010012, sqNSCLC",SD
same,% tumor change after C2,"[3]; Pat 580010016, sqNSCLC",−5%
same,RECIST response after C2,"[3]; Pat 580010016, sqNSCLC",SD
same,% tumor change after C5,"[3]; Pat 580010016, sqNSCLC",−6%
same,RECIST response after C5,"[3]; Pat 580010016, sqNSCLC",SD
same,% tumor change after C2,"[3]; Pat 580010022, Bladder",−3%
same,RECIST response after C2,"[3]; Pat 580010022, Bladder",SD
same,% tumor change after C5,"[3]; Pat 580010022, Bladder",−2%
same,RECIST response after C5,"[3]; Pat 580010022, Bladder",SD
same,% tumor change after C2,"[3]; Pat 580010038, Unknown primary",+26%
same,RECIST response after C2,"[3]; Pat 580010038, Unknown primary",PD
same,in vivo efficacy,H520 lung tumor model,no (All models in which the tumor weight was reduced upon treatment with compounds of formula (I) by at least 50% were considered to be efficacious in vivo.)
same,in vivo efficacy,[4],yes (All models in which the tumor weight was reduced upon treatment with compounds of formula (I) by at least 50% were considered to be efficacious in vivo.)
same,T/C at day 38 post treatment start,"[5]; OVXF1023, 35 mg/kg 2QD 5 days on- 2 days off po, treated mean/vehicle mean tumor volume",0.2
same,in vivo efficacy,"[5]; OVXF1023 ovarian model, tumor weight reduction",yes (All models in which the tumor weight was reduced upon treatment with compounds of formula (I) by at least 50% were considered to be efficacious in vivo.)
same,in vivo efficacy,H1581 lung tumor model,yes (All models in which the tumor weight was reduced upon treatment with compounds of formula (I) by at least 50% were considered to be efficacious in vivo.)
same,in vivo efficacy,HepG2 liver tumor model,no (All models in which the tumor weight was reduced upon treatment with compounds of formula (I) by at least 50% were considered to be efficacious in vivo.)
same,in vivo efficacy,[6],yes (All models in which the tumor weight was reduced upon treatment with compounds of formula (I) by at least 50% were considered to be efficacious in vivo.)
same,in vivo efficacy,LU0697 lung tumor model,yes (All models in which the tumor weight was reduced upon treatment with compounds of formula (I) by at least 50% were considered to be efficacious in vivo.)
same,in vivo efficacy,H716 colon tumor model,yes (All models in which the tumor weight was reduced upon treatment with compounds of formula (I) by at least 50% were considered to be efficacious in vivo.)
same,in vivo efficacy,DMS114 lung tumor model,yes (All models in which the tumor weight was reduced upon treatment with compounds of formula (I) by at least 50% were considered to be efficacious in vivo.)
same,in vivo efficacy,H1703 lung tumor model,no (All models in which the tumor weight was reduced upon treatment with compounds of formula (I) by at least 50% were considered to be efficacious in vivo.)
same,in vivo efficacy,[7],yes (All models in which the tumor weight was reduced upon treatment with compounds of formula (I) by at least 50% were considered to be efficacious in vivo.)
